Laboratory results: US9464113B2, “Anti-heparan sulfate peptides that block herpes simplex virus infection in vivo” (The Board of Trustees of the University of Illinois, priority 2010, dated 2016)
No end group written: not given here.

Legend:
Assay type in all cases: cell-based, herpes simplex virus type-1
[1] = tested on: HSV-1(K26GFP); assay: HSV-1(K26GFP) replication in human CF (GFP fluorescence over time); conditions: 0-36 h post-infection (FIG. 6D)
Procedure: GFP-expressing HSV-1(K26GFP) intensity as a surrogate for virus binding was quantified in presence G2 or control peptide (abbreviated as C) by flow cytometry (FIG. 6C). The cell/virus incubation was performed as described above. G2 peptides block HSV-1 replication into cultured human corneal fibroblasts (CF) (FIG. 6D). Cultured CF were pre-incubated with G2 or mock-treated (Cp) before infection with HSV-1(K26GFP) virus for 6 h. Viral replications in CF were quantified 0-36 h post-infection by measuring GFP fluorescent intensity using a fluorescence reader (Tecan). The data shown are the means of triplicate measures and are representative of three independent experiments. Asterisks indicate significant difference from other treatments (P<0.01, t test), error bars represent standard deviation (SD).
To further confirm that blocking of viral attachment results in a reduction of viral replication, GFP fluorescence was measured as a function of time (K26GFP) (Desai and Person J. Virol. 72:7563-7568 (1998)) in both G2- and mock-treated cells.

[2] = tested on: HSV-1 glycoproteins (gB, gD, gH-gL) induced membrane fusion; assay: HSV-1 glycoprotein induced cell-to-cell fusion assay, human CF target cells
Text: CHO-K1 “effector” cells (grown in F-12 Ham, Invitrogen) were co-transfected with plasmids expressing four HSV-1(KOS) glycoproteins: pPEP98 (gB), pPEP99 (gD), pPEP100 (gH), and pPEP101 (gL), along with the plasmid pT7EMCLuc that expresses firefly luciferase gene under transcriptional control of the T7 promoter. Pertel et al., Virology 279:313-324 (2001). Wild-type CHO-K1 cells, which express cell-surface HS but lack functional gD receptors, were transiently transfected with HSV-1 entry receptors. Wild-type CHO-K1 cultured cells expressing HSV-1 entry receptors or naturally susceptible cells (human CF) considered as “target cells” were co-transfected with pCAGT7 that expresses T7 RNA polymerase using chicken actin promoter and CMV enhancer. Tiwari et al., FEBS Letters 581:4468-4472 (2007). Untreated effector cells expressing pT7EMCLuc and HSV-1 essential glycoproteins, and target cells expressing gD receptors transfected with T7 RNA polymerase, were used as positive controls. G2 or control peptide-treated target cells were then co-cultivated (1:1 ratio) for 18 h with effector cells for fusion. Activation of a reporter luciferase gene—as a measure of cell fusion—was examined using reporter lysis assay (Promega) at 24 hr post mixing.
Since G2 was isolated against 3-OS HS, which can mediate viral penetration by promoting membrane fusion (Tiwari et al., J. Gen. Virol. 85:805-809 (2004)), the ability of G2 to block HSV-1 glycoprotein-mediated membrane fusion was tested. Pertel et al., Virology 279:313-324 (2001). The same membrane fusion is used during polykaryocytes formation and cell-to-cell spread. Tiwari et al., FEBS Letters 581:4468-4472 (2007) and Tiwari et al., Biochemical and Biophysical Research Communications 390:382-387 (2009). […]
(§1) Control effector cells (T7 polymerase and gD, gH-gL only) (−) were also pre-incubated with G2 for the same duration. […] Membrane fusion as a surrogate for viral spread was detected by monitoring luciferase activity (FIGS. 7A and 7C). Relative luciferase units (RLUs) were determined using a Sirius luminometer (Berthold detection systems). […]

[3] = tested on: HSV-1 glycoproteins (gB, gD, gH-gL) induced membrane fusion; assay: HSV-1 glycoprotein induced cell-to-cell fusion assay, 3-OST-3-expressing CHO-K1 target cells
Text: CHO-K1 “effector” cells (grown in F-12 Ham, Invitrogen) were co-transfected with plasmids expressing four HSV-1(KOS) glycoproteins: pPEP98 (gB), pPEP99 (gD), pPEP100 (gH), and pPEP101 (gL), along with the plasmid pT7EMCLuc that expresses firefly luciferase gene under transcriptional control of the T7 promoter. Pertel et al., Virology 279:313-324 (2001). Wild-type CHO-K1 cells, which express cell-surface HS but lack functional gD receptors, were transiently transfected with HSV-1 entry receptors. Wild-type CHO-K1 cultured cells expressing HSV-1 entry receptors or naturally susceptible cells (human CF) considered as “target cells” were co-transfected with pCAGT7 that expresses T7 RNA polymerase using chicken actin promoter and CMV enhancer. Tiwari et al., FEBS Letters 581:4468-4472 (2007). Untreated effector cells expressing pT7EMCLuc and HSV-1 essential glycoproteins, and target cells expressing gD receptors transfected with T7 RNA polymerase, were used as positive controls. […]
as §1

| Sequence | viral replication (GFP intensity over time) [1] | blocking of membrane fusion (luciferase activity) ([2]; human CF (FIG. 7A)) | syncytia (polykaryocyte) formation, Giemsa staining ([2]; human CF (FIG. 7B)) | blocking of membrane fusion (luciferase activity) ([3]; 3-OST-3-expressing CHO-K1 cells (FIG. 7C)) | syncytia (polykaryocyte) formation, Giemsa staining ([3]; 3-OST-3-expressing CHO-K1 cells (FIG. 7D)) | blocking of membrane fusion ([2]; statement only, target cells not stated, no data shown) |
| --- | --- | --- | --- | --- | --- | --- |
| MPRRRRIRRRQK [G2, MPRRRRIRRRQK] | substantial reduction of viral replication | very effective in blocking membrane fusion | loss of syncytia formation | very effective in blocking membrane fusion | loss of syncytia formation | – |
| LRSRTKIIRIRH [G1, LRSRTKIIRIRH] | – | – | – | – | – | does not appear to block membrane fusion |
